Experimental data: patent US9980943B2, “Methods of treating muscular dystrophy” (BOARD OF REGENTS OF THE NEVADA SYSTEM OF HIGHER EDUCATION, …, priority 2013, dated 2018)
Where “and” joins values, the source holds several entries; their conditions need not be identical. Equal entries are not always repeated.

Assays:
Type in all cases: cell-based, mouse
[1] = system: β-galactosidase in CMV-LacZ C2C12 myoblasts; experiment: CMV-LacZ secondary screen in C2C12 myoblasts (β-Gal stabilizing assay); conditions: CMV-LacZ C2C12 myoblasts
Procedure, shortened: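 Dose-response runs at 0.5–40 μM (0.5, 1, 5, 10, 20, 40 μM; N=2 per point) used a clonal C2C12 line carrying CMV-LacZ. Cells were assayed as myoblasts or as differentiated myotubes, and β-galactosidase levels were read with the FDG fluorogenic substrate.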

[2] = system: β-galactosidase in CMV-LacZ C2C12 myotubes; experiment: CMV-LacZ secondary screen in C2C12 myotubes (β-Gal stabilizing assay); conditions: C2C12 CMV-LacZ myotubes, fold relative to DMSO
Procedure, shortened: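 A secondary screen identifies compounds that stabilize β-gal independently of the native promoter, using CMV-LacZ C2C12 cells. Curves span 0.5–40 μM at six levels, in duplicate.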

[3] = system: α7 integrin (LacZ reporter in α7+/LacZ myotubes); experiment: Myotube α7 integrin FDG assay (Burkin assay in myotubes, 96-well); conditions: myotubes
[4] = system: α7 integrin (LacZ reporter in α7βgal+/− myoblasts); experiment: Myoblast α7+/LacZ integrin FDG assay (Burkin assay in myoblasts, 96-well); conditions: α7+/LacZ myoblasts, 96-well

Structure (SMILES) | CMV-LACZ in Myoblasts (β-galactosidase activity relative to DMSO) ([1]; 0.5 uM) | CMV-LACZ in Myoblasts (β-galactosidase activity relative to DMSO) ([1]; 1 uM) | CMV-LACZ in Myoblasts (β-galactosidase activity relative to DMSO) ([1]; 5 uM) | CMV-LACZ in Myoblasts (β-galactosidase activity relative to DMSO) ([1]; 10 uM) | CMV-LACZ in Myoblasts (β-galactosidase activity relative to DMSO) ([1]; 20 uM) | CMV-LACZ in Myoblasts (β-galactosidase activity relative to DMSO) ([1]; 40 uM) | CMV-LACZ in Myotubes, signal relative to DMSO ([2]; 0.5 uM) | CMV-LACZ in Myotubes, signal relative to DMSO ([2]; 1 uM) | CMV-LACZ in Myotubes, signal relative to DMSO ([2]; 5 uM) | CMV-LACZ in Myotubes, signal relative to DMSO ([2]; 10 uM) | CMV-LACZ in Myotubes, signal relative to DMSO ([2]; 20 uM) | CMV-LACZ in Myotubes, signal relative to DMSO ([2]; 40 uM) | Burkin Assay in Myotubes, α7 integrin LacZ reporter signal relative to DMSO ([3]; 0.5 uM) | Burkin Assay in Myotubes, α7 integrin LacZ reporter signal relative to DMSO ([3]; 1 uM) | Burkin Assay in Myotubes, α7 integrin LacZ reporter signal relative to DMSO ([3]; 5 uM) | Burkin Assay in Myotubes, α7 integrin LacZ reporter signal relative to DMSO ([3]; 10 uM) | Burkin Assay in Myotubes, α7 integrin LacZ reporter signal relative to DMSO ([3]; 20 uM) | Burkin Assay in Myotubes, α7 integrin LacZ reporter signal relative to DMSO ([3]; 40 uM) | Burkin Assay in Myoblasts, signal relative to DMSO ([4]; 0.5 uM) | Burkin Assay in Myoblasts, signal relative to DMSO ([4]; 1 uM) | other results
COc1ccc(N2CCN(C(=O)c3cc(C)on3)CC2)cc1 [MLS001124046-01] | 0.8409 | 1.2650 | 0.9307 | 0.8501 | 0.9881 | 1.0807 |  |  |  |  |  |  |  |  |  |  |  |  |  |  | fold induction at 0.5 µM ([2]; Mus musculus, C2C12, read-out: CMV-LACZ in Myotubes, signal relative to DMSO, 0.5 uM): 1.02; fold induction at 1 µM ([2]; Mus musculus, C2C12, read-out: CMV-LACZ in Myotubes, signal relative to DMSO, 1 uM): 1.02; fold induction at 5 µM ([2]; Mus musculus, C2C12, read-out: CMV-LACZ in Myotubes, signal relative to DMSO, 5 uM): 0.84; fold induction at 10 µM ([2]; Mus musculus, C2C12, read-out: CMV-LACZ in Myotubes, signal relative to DMSO, 10 uM): 1.02; fold induction at 20 µM ([2]; Mus musculus, C2C12, read-out: CMV-LACZ in Myotubes, signal relative to DMSO, 20 uM): 1.09; fold induction at 40 µM ([2]; Mus musculus, C2C12, read-out: CMV-LACZ in Myotubes, signal relative to DMSO, 40 uM): 0.981; fold induction at 0.5 µM ([3]; Mus musculus, Myotube, 0.5 uM, read-out: Burkin Assay in Myotubes, α7 integrin LacZ reporter signal relative to DMSO): 1.15; fold induction at 1 µM ([3]; Mus musculus, Myotube, 1 uM, read-out: Burkin Assay in Myotubes, α7 integrin LacZ reporter signal relative to DMSO): 1.1; fold induction at 5 µM ([3]; Mus musculus, Myotube, 5 uM, read-out: Burkin Assay in Myotubes, α7 integrin LacZ reporter signal relative to DMSO): 1.42; fold induction at 10 µM ([3]; Mus musculus, Myotube, 10 uM, read-out: Burkin Assay in Myotubes, α7 integrin LacZ reporter signal relative to DMSO): 1.02; fold induction at 20 µM ([3]; Mus musculus, Myotube, 20 uM, read-out: Burkin Assay in Myotubes, α7 integrin LacZ reporter signal relative to DMSO): 0.893; fold induction at 40 µM ([3]; Mus musculus, Myotube, 40 uM, read-out: Burkin Assay in Myotubes, α7 integrin LacZ reporter signal relative to DMSO): 0.92; fold induction at 0.5 µM ([4]; Mus musculus, Myoblast, 48 h, 0.5 uM, read-out: Burkin Assay in Myoblasts, signal relative to DMSO): 1.06; fold induction at 1 µM ([4]; Mus musculus, Myoblast, 48 h, 1 uM, read-out: Burkin Assay in Myoblasts, signal relative to DMSO): 1.16; fold induction at 5 µM ([4]; Mus musculus, Myoblast, 48 h, 5 uM, read-out: Burkin Assay in Myoblasts, signal relative to DMSO): 1.08; fold induction at 10 µM ([4]; Mus musculus, Myoblast, 48 h, 10 uM, read-out: Burkin Assay in Myoblasts, signal relative to DMSO): 1.01; fold induction at 20 µM ([4]; Mus musculus, Myoblast, 48 h, 20 uM, read-out: Burkin Assay in Myoblasts, signal relative to DMSO): 1.1; fold induction at 40 µM ([4]; Mus musculus, Myoblast, 48 h, 40 uM, read-out: Burkin Assay in Myoblasts, signal relative to DMSO): 1.07
CC1(C)Cc2c(cnn2-c2cccc(F)c2)C(NC(=O)CCc2cnccn2)C1 (stereo not drawn) [MLS001125260-01] | 1.1581 | 1.0584 | 1.0114 | 0.9131 | 1.0563 | 1.2270 | 1.0074 | 1.0993 | 0.9614 and 0.9645 | 1.0994 and 1.065 | 1.0000 and 1.0765 | 0.9212 and 1.175 | 1.285 and 1.002 | 1.208 and 0.8663 | 0.9677 and 1.022 | 1.091 and 0.9402 | 0.7634 and 0.9057 | 0.7451 and 0.9086 | 1.21 and 1.071 | 1.11 and 1.021 | Burkin Assay in Myoblasts, signal relative to DMSO ([4]; 5 uM): 0.9838 and 0.9248; Burkin Assay in Myoblasts, signal relative to DMSO ([4]; 10 uM): 0.9616 and 0.8893; Burkin Assay in Myoblasts, signal relative to DMSO ([4]; 20 uM): 1.024 and 0.8738; Burkin Assay in Myoblasts, signal relative to DMSO ([4]; 40 uM): 0.9057 and 0.8426
CC(C)c1ccc(OC(=O)c2cccc(S(=O)(=O)N3CCN(C)CC3)c2)cc1 [MLS001130011-01] | 1.1702 | 0.7695 | 1.0011 | 1.1138 | 0.7837 | 0.8311 | 0.9358 | 1.0211 | 0.9057 | 0.8998 | 0.8367 | 1.0156 | 0.9553 | 0.9952 | 0.8834 | 1.0699 | 0.7883 | 0.7512 | 0.9715 | 0.8947 | Burkin Assay in Myoblasts, signal relative to DMSO ([4]; 5 uM): 1.374; Burkin Assay in Myoblasts, signal relative to DMSO ([4]; 10 uM): 0.9762; Burkin Assay in Myoblasts, signal relative to DMSO ([4]; 20 uM): 1.037; Burkin Assay in Myoblasts, signal relative to DMSO ([4]; 40 uM): 0.9155
Cn1ccc(C(=O)Nc2cccnc2Cl)n1 [MLS001147478-01] | 1.0721 | 0.8808 | 1.2105 | 1.2999 | 1.0513 | 0.8747 | 1.3536 | 1.3827 | 0.8937 | 1.2959 | 1.0810 | 0.9510 | 1.076 | 0.9677 | 0.9933 | 1.041 | 0.8876 | 0.8744 | 1.142 | 1.091 | Burkin Assay in Myoblasts, signal relative to DMSO ([4]; 5 uM): 1.0569; Burkin Assay in Myoblasts, signal relative to DMSO ([4]; 10 uM): 1.192; Burkin Assay in Myoblasts, signal relative to DMSO ([4]; 20 uM): 0.9651; Burkin Assay in Myoblasts, signal relative to DMSO ([4]; 40 uM): 0.8215
CC1Cc2ccccc2N1C(=O)CSc1nnc(N)s1 (stereo not drawn) [MLS001160611-01] | 1.2070 | 0.8157 | 1.0117 | 1.0340 | 0.8144 | 1.0389 | 0.9762 | 1.2419 | 0.8306 | 0.9661 | 1.0240 | 0.9190 | 0.9452 | 0.8628 | 1.006 | 1.169 | 0.8397 | 1.24 | 1.1058 | 0.9767 | Burkin Assay in Myoblasts, signal relative to DMSO ([4]; 5 uM): 1.004; Burkin Assay in Myoblasts, signal relative to DMSO ([4]; 10 uM): 1.115; Burkin Assay in Myoblasts, signal relative to DMSO ([4]; 20 uM): 0.9749; Burkin Assay in Myoblasts, signal relative to DMSO ([4]; 40 uM): 0.9267
